# Data from PubChem BioAssay AID2060483 (Molecular Pharmacology Branch, DTP, NCI, 2025).
# System: K24384-001-R-PDC complex spheroids, viability
# Experiment: Anticancer human tumor K24384-001-R-PDC patient-derived pancreatic adenocarcinoma cell line growth inhibition [GQUAD]
# Conditions: for IC50: curve of first compound; for viability, T/C: stronger effect = lower value
# In short: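 Tumor cells were grown as complex spheroids with HUVEC endothelial cells and mesenchymal stem cells as stroma. G-quadruplex stabilizers were combined with targeted agents over half-log dilutions from near the clinical Cmax, or from 10 microM.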
# [1] = second compound 0.0316 µM, first compound 0.0316 µM
# [2] = second compound 0.0316 µM, first compound 0.1 µM
# [3] = second compound 0.0316 µM, first compound 0.316 µM
# [4] = second compound 0.0316 µM, first compound 1 µM
# [5] = second compound 0.0316 µM, first compound 3.16 µM
# [6] = second compound 0.0316 µM, first compound 10 µM
# [7] = second compound 0.1 µM, first compound 0.0316 µM
# [8] = second compound 0.1 µM, first compound 0.1 µM
# [9] = second compound 0.1 µM, first compound 0.316 µM
# [10] = second compound 0.1 µM, first compound 1 µM
# [11] = second compound 0.1 µM, first compound 3.16 µM
# [12] = second compound 0.1 µM, first compound 10 µM
# [13] = second compound 0.316 µM, first compound 0.0316 µM
# [14] = second compound 0.316 µM, first compound 0.1 µM
# [15] = second compound 0.316 µM, first compound 0.316 µM
# [16] = second compound 0.316 µM, first compound 1 µM
# [17] = second compound 0.316 µM, first compound 3.16 µM
# [18] = second compound 0.316 µM, first compound 10 µM
# [19] = second compound 1 µM, first compound 0.0316 µM
# [20] = second compound 1 µM, first compound 0.1 µM
# [21] = second compound 1 µM, first compound 0.316 µM
# [22] = second compound 1 µM, first compound 1 µM
# [23] = second compound 1 µM, first compound 3.16 µM
# [24] = second compound 1 µM, first compound 10 µM
# [25] = second compound 3.16 µM, first compound 0.0316 µM
# [26] = second compound 3.16 µM, first compound 0.1 µM
# [27] = second compound 3.16 µM, first compound 0.316 µM
# [28] = second compound 3.16 µM, first compound 1 µM
# [29] = second compound 3.16 µM, first compound 3.16 µM
# [30] = second compound 3.16 µM, first compound 10 µM
# [31] = second compound 10 µM, first compound 0.0316 µM
# [32] = second compound 10 µM, first compound 0.1 µM
# [33] = second compound 10 µM, first compound 0.316 µM
# [34] = second compound 10 µM, first compound 1 µM
# [35] = second compound 10 µM, first compound 3.16 µM
# [36] = second compound 10 µM, first compound 10 µM
# 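Further: spheroids exposed to compounds for seven days.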
compound,measurement,setting,value
CC1COCCN1c1cc(-c2ccnn2C)c2ccnc(-c3ccn[nH]3)c2n1 (stereo not given) + Cc1cnc(CNC(=O)c2c(=O)c3ccc(N4CCCN(C)CC4)nc3n3c2sc2ccccc23)cn1,IC50,second compound 0.0316 µM,0.0415 µM
same,IC50,second compound 0.1 µM,< 0.0316 µM
same,IC50,second compound 0.316 µM,< 0.0316 µM
same,IC50,second compound 1 µM,< 0.0316 µM
same,IC50,second compound 3.16 µM,< 0.0316 µM
same,IC50,second compound 10 µM,< 0.0316 µM
same,"viability, T/C",[1],53.5%
same,"viability, T/C",[2],37.8%
same,"viability, T/C",[3],40%
same,"viability, T/C",[4],32%
same,"viability, T/C",[5],34.6%
same,"viability, T/C",[6],29.9%
same,"viability, T/C",[7],48.8%
same,"viability, T/C",[8],51.1%
same,"viability, T/C",[9],34%
same,"viability, T/C",[10],41.5%
same,"viability, T/C",[11],32.2%
same,"viability, T/C",[12],24.4%
same,"viability, T/C",[13],44.8%
same,"viability, T/C",[14],46.4%
same,"viability, T/C",[15],39.4%
same,"viability, T/C",[16],34.7%
same,"viability, T/C",[17],32.8%
same,"viability, T/C",[18],22.7%
same,"viability, T/C",[19],42.9%
same,"viability, T/C",[20],35.2%
same,"viability, T/C",[21],34%
same,"viability, T/C",[22],37.4%
same,"viability, T/C",[23],25.3%
same,"viability, T/C",[24],22.9%
same,"viability, T/C",[25],32.8%
same,"viability, T/C",[26],37.4%
same,"viability, T/C",[27],31.4%
same,"viability, T/C",[28],26.8%
same,"viability, T/C",[29],21.7%
same,"viability, T/C",[30],19.2%
same,"viability, T/C",[31],25.4%
same,"viability, T/C",[32],21.5%
same,"viability, T/C",[33],20.9%
same,"viability, T/C",[34],24.8%
same,"viability, T/C",[35],10.3%
same,"viability, T/C",[36],8.1%
CC1COCCN1c1cc(C2(O)CC3CCC(C2)O3)c2cnn(-c3ccn[nH]3)c2n1 (stereo not given) + Cc1cnc(CNC(=O)c2c(=O)c3ccc(N4CCCN(C)CC4)nc3n3c2sc2ccccc23)cn1,IC50,second compound 0.0316 µM,0.0333 µM
same,IC50,second compound 0.1 µM,< 0.0316 µM
same,IC50,second compound 0.316 µM,< 0.0316 µM
same,IC50,second compound 1 µM,< 0.0316 µM
same,IC50,second compound 3.16 µM,< 0.0316 µM
same,IC50,second compound 10 µM,< 0.0316 µM
same,"viability, T/C",[1],51.9%
same,"viability, T/C",[2],39.6%
same,"viability, T/C",[3],33.7%
same,"viability, T/C",[4],25.1%
same,"viability, T/C",[5],26.4%
same,"viability, T/C",[6],12.3%
same,"viability, T/C",[7],43.4%
same,"viability, T/C",[8],37.5%
same,"viability, T/C",[9],31.1%
same,"viability, T/C",[10],32.4%
same,"viability, T/C",[11],26.3%
same,"viability, T/C",[12],10.8%
same,"viability, T/C",[13],40.6%
same,"viability, T/C",[14],37.8%
same,"viability, T/C",[15],31%
same,"viability, T/C",[16],31.9%
same,"viability, T/C",[17],23.6%
same,"viability, T/C",[18],10.8%
same,"viability, T/C",[19],39.2%
same,"viability, T/C",[20],42.2%
same,"viability, T/C",[21],31.2%
same,"viability, T/C",[22],26.7%
same,"viability, T/C",[23],18.1%
same,"viability, T/C",[24],8.33%
same,"viability, T/C",[25],42.2%
same,"viability, T/C",[26],35.7%
same,"viability, T/C",[27],29.5%
same,"viability, T/C",[28],27.2%
same,"viability, T/C",[29],16.4%
same,"viability, T/C",[30],8.63%
same,"viability, T/C",[31],27.5%
same,"viability, T/C",[32],20.4%
same,"viability, T/C",[33],23.7%
same,"viability, T/C",[34],19.4%
same,"viability, T/C",[35],6.65%
same,"viability, T/C",[36],0.55%
CC1COCCN1c1cc(C2(S(C)(=N)=O)CC2)nc(-c2ccnc3[nH]ccc23)n1 (stereo not given) + Cc1cnc(CNC(=O)c2c(=O)c3ccc(N4CCCN(C)CC4)nc3n3c2sc2ccccc23)cn1,IC50,second compound 0.0316 µM,2.49 µM
same,IC50,second compound 0.1 µM,2.19 µM
same,IC50,second compound 0.316 µM,5.27 µM
same,IC50,second compound 1 µM,< 0.0316 µM
same,IC50,second compound 3.16 µM,< 0.0316 µM
same,IC50,second compound 10 µM,< 0.0316 µM
same,"viability, T/C",[1],85.6%
same,"viability, T/C",[2],100%
same,"viability, T/C",[3],83.5%
same,"viability, T/C",[4],55.7%
same,"viability, T/C",[5],55%
same,"viability, T/C",[6],30.4%
same,"viability, T/C",[7],69%
same,"viability, T/C",[8],90.7%
same,"viability, T/C",[9],64.5%
same,"viability, T/C",[10],56.8%
same,"viability, T/C",[11],50.5%
same,"viability, T/C",[12],39.6%
same,"viability, T/C",[13],57.8%
same,"viability, T/C",[14],64.2%
same,"viability, T/C",[15],56.1%
same,"viability, T/C",[16],52.3%
same,"viability, T/C",[17],59.8%
same,"viability, T/C",[18],40.1%
same,"viability, T/C",[19],41.5%
same,"viability, T/C",[20],45.2%
same,"viability, T/C",[21],45.3%
same,"viability, T/C",[22],42.7%
same,"viability, T/C",[23],43.7%
same,"viability, T/C",[24],32.5%
same,"viability, T/C",[25],41.9%
same,"viability, T/C",[26],50.4%
same,"viability, T/C",[27],37.8%
same,"viability, T/C",[28],43.1%
same,"viability, T/C",[29],37.6%
same,"viability, T/C",[30],25.8%
same,"viability, T/C",[31],34.5%
same,"viability, T/C",[32],23.2%
same,"viability, T/C",[33],31.9%
same,"viability, T/C",[34],35.2%
same,"viability, T/C",[35],35.5%
same,"viability, T/C",[36],21.6%
COc1ccc([C@@H](O)c2cc(-c3ncnc4cc(N5CCOCC5)ccc34)c(F)cc2Cl)nn1 + Cc1cnc(CNC(=O)c2c(=O)c3ccc(N4CCCN(C)CC4)nc3n3c2sc2ccccc23)cn1,IC50,second compound 0.0316 µM,1.24 µM
same,IC50,second compound 0.1 µM,0.497 µM
same,IC50,second compound 0.316 µM,0.12 µM
same,IC50,second compound 1 µM,< 0.0316 µM
same,IC50,second compound 3.16 µM,< 0.0316 µM
same,IC50,second compound 10 µM,< 0.0316 µM
same,"viability, T/C",[1],89.9%
same,"viability, T/C",[2],81.5%
same,"viability, T/C",[3],70.8%
same,"viability, T/C",[4],45.9%
same,"viability, T/C",[5],43.8%
same,"viability, T/C",[6],23.6%
same,"viability, T/C",[7],57.2%
same,"viability, T/C",[8],68.7%
same,"viability, T/C",[9],46.5%
same,"viability, T/C",[10],42.3%
same,"viability, T/C",[11],39.1%
same,"viability, T/C",[12],17.6%
same,"viability, T/C",[13],48.6%
same,"viability, T/C",[14],57.6%
same,"viability, T/C",[15],43.1%
same,"viability, T/C",[16],41.5%
same,"viability, T/C",[17],34%
same,"viability, T/C",[18],12.6%
same,"viability, T/C",[19],40.5%
same,"viability, T/C",[20],59.9%
same,"viability, T/C",[21],35.4%
same,"viability, T/C",[22],34.1%
same,"viability, T/C",[23],21.7%
same,"viability, T/C",[24],12.7%
same,"viability, T/C",[25],36.7%
same,"viability, T/C",[26],41.9%
same,"viability, T/C",[27],33.4%
same,"viability, T/C",[28],29.8%
same,"viability, T/C",[29],24.6%
same,"viability, T/C",[30],10.2%
same,"viability, T/C",[31],28.1%
same,"viability, T/C",[32],29.9%
same,"viability, T/C",[33],27.4%
same,"viability, T/C",[34],27.4%
same,"viability, T/C",[35],16.8%
same,"viability, T/C",[36],0.52%
O=C(c1cc(Cc2n[nH]c(=O)c3ccccc23)ccc1F)N1CCN(C(=O)C2CC2)CC1 + Cc1cnc(CNC(=O)c2c(=O)c3ccc(N4CCCN(C)CC4)nc3n3c2sc2ccccc23)cn1,IC50,second compound 0.0316 µM,> 10 µM
same,IC50,second compound 0.1 µM,> 10 µM
same,IC50,second compound 0.316 µM,> 10 µM
same,IC50,second compound 1 µM,0.0316 µM
same,IC50,second compound 3.16 µM,< 0.0316 µM
same,IC50,second compound 10 µM,< 0.0316 µM
same,"viability, T/C",[1],88.4%
same,"viability, T/C",[2],93.5%
same,"viability, T/C",[3],92.8%
same,"viability, T/C",[4],113%
same,"viability, T/C",[5],94.8%
same,"viability, T/C",[6],86.3%
same,"viability, T/C",[7],71.8%
same,"viability, T/C",[8],88.7%
same,"viability, T/C",[9],66.9%
same,"viability, T/C",[10],83.6%
same,"viability, T/C",[11],70.9%
same,"viability, T/C",[12],80.7%
same,"viability, T/C",[13],62.5%
same,"viability, T/C",[14],81.5%
same,"viability, T/C",[15],60%
same,"viability, T/C",[16],88.3%
same,"viability, T/C",[17],88.7%
same,"viability, T/C",[18],62.5%
same,"viability, T/C",[19],53%
same,"viability, T/C",[20],48.4%
same,"viability, T/C",[21],49.1%
same,"viability, T/C",[22],67.4%
same,"viability, T/C",[23],60.2%
same,"viability, T/C",[24],49.7%
same,"viability, T/C",[25],43.5%
same,"viability, T/C",[26],52.8%
same,"viability, T/C",[27],47.6%
same,"viability, T/C",[28],59.5%
same,"viability, T/C",[29],38.3%
same,"viability, T/C",[30],50.9%
same,"viability, T/C",[31],40.5%
same,"viability, T/C",[32],24.1%
same,"viability, T/C",[33],43.3%
same,"viability, T/C",[34],45.6%
same,"viability, T/C",[35],27.9%
same,"viability, T/C",[36],12.3%
